Legend:
[1] = tested on: phosphorylation of ERK and AKT; experiment: Immunoblotting of p-ERK and p-AKT in 786-O and 786-R; assay type: cell-based, human; conditions: 2.5 μM, 1 to 48 h
Procedure: H: 786-O and 786-R were treated with 2.5 μM compound #1 for 1 to 48 h. p-ERK and p-AKT levels were determined by immunoblotting. ERK and AKT served as loading controls. *P<0.05; **P<0.01; ***P<0.001.
Cells were lysed in buffer containing 3% SDS, 10% glycerol and 0.825 mM Na2HPO4. 30 to 50 μg of proteins were separated on 10% SDS-PAGE, transferred onto a PVDF membrane (Immobilon, Millipore, France) and then exposed to the appropriate antibodies. Proteins were visualized with the ECL system using horseradish peroxidase-conjugated anti-rabbit or anti-mouse secondary antibodies.

[2] = Stability in cellulo by UPLC/HRMS on 786-O cell line; assay type: in vitro ADME; conditions: 24h treatment at room temperature
Source text: The stability of compound #1 was first assayed through UPLC/HRMS analyses in cellulo on the 786-O cell line.

CAL33 = experiment: XTT cell viability assay, CAL33; assay type: cell-based; conditions: Homo sapiens, CAL-33; XTT assay (48 h); standard deviation of 10%; read-out: EC50 (μM) Head and Neck CAL33
Procedure: (§1) Fifty microliters of sodium 3′-[1-phenylaminocarbonyl)-3,4-tetrazolium]-bis(4-methoxy-6-nitro) benzene sulfonic acid hydrate (XTT) reagent was added to each well. The assay is based on the cleavage of the yellow tetrazolium salt XTT to form an orange formazan dye by metabolically active cells. The absorbance of the formazan product, reflecting cell viability, was measured at 490 nm. Each assay was performed in quadruplicate.
(§2) Compounds #1-#14 have been assayed as potential anti-proliferative agents against a panel of human breast head and neck, and kidney tumor cells and hematological malignancies, selected on the basis of their aggressiveness (e.g. incurable triple-negative breast cancer cells: MDA-MB-231; kidney ccRCC cells: RCC4, A498 and 786-O and 786R; head and neck cancer cells: CAL33, CAL33RR, CAL27, and CAL27RR; acute myeloid cell lines: OCI-AML2, OCI-AML3, MolM13, and MolM14; myelodysplastic cell line: SM1; and chronic myeloid cell line: CML). All these cell lines share as common denominator the expression of CXCR1 and CXCR2. The EC50 values have been measured by a XTT colorimetric assay, and compared to those of SB-225002, used as a reference; the results are listed in Table 1.

786-O and 786-R cells = experiment: FACS analysis of death markers, sunitinib-sensitive and -resistant cells; assay type: cell-based, human; conditions: 2.5 μM, 48 h, 786 and 786-R
Procedure: C: 786 and 786-R cells were treated with 2.5 μM compound #1 for 48 h. Cells were stained with the PI/annexin-V-fluo staining kit according to the manufacturer's indications. Histograms show both annexin-V^+/PI^− cells (blue bars) and annexin-V^+/PI^+ cells (red bars);
Apoptosis analysis: After stimulation, cells were washed with ice-cold PBS and were stained with the annexin-V-fluos staining kit (Roche, Meylan, France) according to the manufacturer's procedure. Fluorescence was measured by using the FL2 (AV) and FL3 (propidium iodide, PI) channels of a fluorescence-activated cell sorter apparatus (Calibur cytometer).

HuVEC = HuVEC viability/proliferation (XTT), basal and CXCL5/CXCL7-dependent; assay type: cell-based; conditions: XTT 48 h; 100 ng/ml CXCL7 or CXCL5, 0.25 or 0.5 μM
Procedure: C: HuVEC were grown in the presence of different concentrations of compound #1 for 48h. Cell viability was measured by XTT assays;
D: HuVEC were incubated with 100 ng/ml CXCL7 or CXCL5, in presence of 0.25 or 0.5 μM compound #1 for 48 h. Cell viability was measured by XTT assays;
as §1

SKM1 = experiment: XTT cell viability assay, SKM1; assay type: cell-based, human; conditions: Homo sapiens, SKM-1; XTT assay (48 h); standard deviation of 10%; read-out: EC50 (μM) MDS SKM1
Procedure: as §1, §2

MDA-MB-231 = experiment: XTT cell viability assay, MDA-MB-231; assay type: cell-based; conditions: Homo sapiens, XTT assay (48 h), standard deviation of 10%, read-out: EC50 (μM) Breast MDA-MB-231
Procedure: as §1, §2

O=C(Nc1cccc(Cl)c1)Nc1nc2ccc([N+](=O)[O-])cc2s1 [Compound #1, 1-(3-chlorophenyl)-3-(6-nitrobenzo[d]thiazol-2-yl)urea]
phosphorylation of ERK and AKT [1]: inhibits the phosphorylation of ERK and AKT
degradation (stability in cellulo) [2]: No degradation
EC50 (CAL33): 2 µM
death markers (annexin-V/PI) in sensitive and resistant cells (786-O and 786-R cells): kills in a similar way sensitive and resistant
basal and CXCL5/CXCL7-dependent HuVEC proliferation (HuVEC): inhibits basal and CXCL5/CXCL7-dependent HuVEC proliferation
EC50 (SKM1): 5 µM
EC50 (MDA-MB-231): 2.5 µM
